Test results published in US20230072683A1, “PYRIDO-PYRIMIDIN DERIVATIVES AND PHARMACEUTICAL COMPOSITION, FOR USE IN PREVENTING OR TREATING PI3 KINASE RELATED DISEASES, COMPRISING SAME AS ACTIVE INGREDIENT” (BORYUNG PHARMACEUTICAL CO., LTD, priority 2019, published 2023).
Where two headings read alike, the source gives them in different places.

Assays:
[1] = molecular target: PI3K-δ (PI3K(p1108/p857) (h)) (Homo sapiens, UniProt O00329); experiment: Evaluation of inhibitory activity against PI3K-δ (HTRF kinase assay); assay type: biochemical; details: for inhibition at 0.1 µM: read-out: EXP_VALUE(% Inhibition) PI3K-δ 0.1 μM; for inhibition at 0.01 µM: compound concentration 0.01 μM, read-out: EXP_VALUE(% Inhibition) PI3K-δ 0.01 μM
Experimental: <Experimental Example 1> Evaluation of Inhibitory Activity Properties Against PI3K-δ
The following experiments were performed to verify the inhibitory activity against PI3K-δ with regard to each of the compounds of Examples 1 to 441 according to the present invention.
PI3K(p1108/p857) (h) was incubated in assay buffer comprising 10 μM phosphatidylinositol-4,5-bisphosphate and Mg/ATP (at a concentration as required). The reaction was initiated by the addition of a Mg/ATP mixture, and after incubation for 30 minutes at room temperature, a stop solution comprising EDTA and phosphatidylinositol-3,4,5-triphosphate was added to stop the reaction and carry out biotinylation.
A detection buffer comprising Eu (europium)-labelled anti-GST monoclonal antibody, GST-tagged GRP1 PH domain and streptavidin-allophycocyanin was added. A plate was read in a time-resolved fluorescence mode and a homogeneous time-resolved fluorescence (HTRF) signal was determined according to HTRF=10000×(Em 665 nm/Em 620 nm).

DNA-PK(h) = DNA-PK(h) (Homo sapiens, UniProt P78527); experiment: Evaluation of inhibitory activity against DNA-PK (HTRF kinase assay, GST-cMyc-p53 substrate); assay type: biochemical; details: for inhibition at 0.1 µM: read-out: EXP_VALUE(% Inhibition) DNA-PK(h) 0.1 μM; for inhibition at 0.01 µM: compound concentration 0.01 μM, read-out: EXP_VALUE(% Inhibition) DNA-PK(h) 0.01 μM
Experimental: <Experimental Example 2> Evaluation of Inhibitory Activity Properties Against DNA-PK
The following experiments were performed to verify the inhibitory activity against DNA-PK with regard to each of the compounds of Examples 1 to 441 according to the present invention.
DNA-PK(h) was subjected to an isothermal treatment in an assay buffer comprising […] GST-cMyc-p53 and Mg/ATP (at a concentration as required). The reaction was initiated by the addition of a Mg/ATP mixture, and after incubation for 30 minutes at room temperature, a stop solution comprising EDTA was added to stop the reaction. A detection buffer comprising d2-labelled anti-GST monoclonal antibody and Europium-labelled anti-phospho Ser15 antibody for phosphorylated p53 was added. A plate was read in a time-resolved fluorescence mode and a homogeneous time-resolved fluorescence (HTRF) signal was determined according to HTRF=10000×(Em 665 nm/Em 620 nm).

Sequence of PI3K-δ (PI3K(p1108/p857) (h)) (O00329 whole entry): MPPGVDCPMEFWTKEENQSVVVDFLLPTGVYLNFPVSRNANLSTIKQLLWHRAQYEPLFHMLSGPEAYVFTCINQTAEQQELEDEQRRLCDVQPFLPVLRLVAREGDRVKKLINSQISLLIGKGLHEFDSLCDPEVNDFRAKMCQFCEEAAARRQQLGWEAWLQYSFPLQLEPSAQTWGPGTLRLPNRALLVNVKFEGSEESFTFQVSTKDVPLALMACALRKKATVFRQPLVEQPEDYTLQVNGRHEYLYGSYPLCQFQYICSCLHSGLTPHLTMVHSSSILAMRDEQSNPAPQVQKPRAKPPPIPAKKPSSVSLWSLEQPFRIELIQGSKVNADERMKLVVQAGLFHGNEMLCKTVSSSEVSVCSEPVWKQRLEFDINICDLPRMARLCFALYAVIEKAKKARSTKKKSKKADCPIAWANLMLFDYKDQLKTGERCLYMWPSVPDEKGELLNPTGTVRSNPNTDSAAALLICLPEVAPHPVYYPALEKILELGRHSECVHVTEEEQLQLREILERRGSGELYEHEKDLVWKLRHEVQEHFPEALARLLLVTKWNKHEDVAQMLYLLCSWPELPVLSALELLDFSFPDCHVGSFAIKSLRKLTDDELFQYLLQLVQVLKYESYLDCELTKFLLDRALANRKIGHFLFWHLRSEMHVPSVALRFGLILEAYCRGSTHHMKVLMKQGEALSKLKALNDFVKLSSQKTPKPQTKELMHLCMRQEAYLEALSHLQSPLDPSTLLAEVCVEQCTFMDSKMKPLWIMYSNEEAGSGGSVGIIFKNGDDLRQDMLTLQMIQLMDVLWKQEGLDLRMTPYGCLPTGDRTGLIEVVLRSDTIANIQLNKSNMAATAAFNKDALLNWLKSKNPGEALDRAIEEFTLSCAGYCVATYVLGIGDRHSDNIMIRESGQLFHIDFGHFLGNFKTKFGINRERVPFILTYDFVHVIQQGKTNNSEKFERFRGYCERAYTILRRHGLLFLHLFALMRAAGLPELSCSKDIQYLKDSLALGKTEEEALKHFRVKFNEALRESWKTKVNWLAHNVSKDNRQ
Sequence of PI3K-δ (PI3K(p1108/p857) (h)) (P27986 whole entry partner): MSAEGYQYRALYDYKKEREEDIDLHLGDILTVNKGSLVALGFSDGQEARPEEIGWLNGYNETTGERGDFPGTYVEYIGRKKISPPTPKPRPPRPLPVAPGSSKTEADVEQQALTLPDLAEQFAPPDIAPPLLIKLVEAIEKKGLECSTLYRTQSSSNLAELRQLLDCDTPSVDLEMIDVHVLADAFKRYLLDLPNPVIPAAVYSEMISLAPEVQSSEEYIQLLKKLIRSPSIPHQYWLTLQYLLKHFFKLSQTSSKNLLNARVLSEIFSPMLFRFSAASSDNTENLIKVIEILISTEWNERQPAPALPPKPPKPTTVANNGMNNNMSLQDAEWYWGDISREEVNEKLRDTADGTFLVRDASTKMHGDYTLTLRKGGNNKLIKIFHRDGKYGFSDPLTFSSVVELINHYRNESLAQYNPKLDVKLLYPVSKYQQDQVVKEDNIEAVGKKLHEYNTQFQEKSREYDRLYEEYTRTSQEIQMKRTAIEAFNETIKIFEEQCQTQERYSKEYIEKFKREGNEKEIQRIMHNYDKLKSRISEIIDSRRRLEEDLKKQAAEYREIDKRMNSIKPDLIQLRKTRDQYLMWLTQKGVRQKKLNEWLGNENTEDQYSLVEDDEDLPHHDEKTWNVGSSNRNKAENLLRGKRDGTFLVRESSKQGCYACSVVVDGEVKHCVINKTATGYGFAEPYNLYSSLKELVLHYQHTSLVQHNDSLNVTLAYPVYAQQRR

| inhibition at 0.1 µM ([1]; compound at 0.1 μM) | inhibition at 0.1 µM (DNA-PK(h); compound at 0.1 μM) | inhibition at 0.01 µM [1] | inhibition at 0.1 µM ([1]; compound concentration 0.1 μM) | inhibition at 0.01 µM (DNA-PK(h)) | inhibition at 0.1 µM (DNA-PK(h); compound concentration 0.1 μM) | Compound |
| --- | --- | --- | --- | --- | --- | --- |
| 32% | 57% | – | – | – | – | C[C@H](Nc1ncnc2[nH]ccc(=O)c12)c1c(Cl)c2cccc([S+]([O-])C3COC3)c2c(=O)n1-c1ccccc1 (stereo partly drawn) [Example 431, 4-(((1S)-1-(4-chloro-8-(oxetan-3-ylsulfinyl)-1-oxo-2-phenyl-1,2-dihydroisoquinolin-3-yl)ethyl)amino)pyrido[2,3-d]pyrimidin-5(8H)-one] |
| – | – | 105% | 102% | 78% | 97% | C[C@H](Nc1ncnc2[nH]ccc(=O)c12)c1c(Cl)c2cccc(-c3ccc4c(c3)OCCO4)c2c(=O)n1-c1ccccc1 [Example 253, (S)-4-((1-(4-chloro-8-(2,3-dihydrobenzo[b][1,4]dioxin-6-yl)-1-oxo-2-phenyl-1,2-dihydroisoquinolin-3-yl)ethyl)amino)pyrido[2,3-d]pyrimidin-5(8H)-one] |
| – | – | 6% | – | -15% | – | C[C@H](Nc1ncnc2[nH]ccc(=O)c12)c1c(Cl)c2cccc(-c3cnc(C(F)(F)F)cn3)c2c(=O)n1-c1ccccc1 [Example 51, (S)-4-((1-(4-chloro-1-oxo-2-phenyl-8-(5-(trifluoromethyl)pyrazin-2-yl)-1,2-dihydroisoquinolin-3-yl)ethyl)amino)pyrido[2,3-d]pyrimidin-5(8H)-one] |
| – | – | 93% | 97% | 57% | 91% | Cc1ncccc1-c1cccc2c(Cl)c([C@H](C)Nc3ncnc4[nH]ccc(=O)c34)n(-c3ccccc3)c(=O)c12 [Example 110, (S)-4-((1-(4-chloro-8-(2-methylpyridin-3-yl)-1-oxo-2-phenyl-1,2-dihydroisoquinolin-3-yl)ethyl)amino)pyrido[2,3-d]pyrimidin-5(8H)-one] |
| – | – | 37% | – | 26% | – | C[C@H](Nc1ncnc2[nH]ccc(=O)c12)c1c(Cl)c2cccc(C(=O)C3CC3)c2c(=O)n1-c1ccccc1 [Example 269, (S)-4-((1-(4-chloro-8-(cyclopropanecarbonyl)-1-oxo-2-phenyl-1,2-dihydroisoquinolin-3-yl)ethyl)amino)pyrido[2,3-d]pyrimidin-5(8H)-one] |
| – | – | 67% | 95% | 3% | 55% | C[C@H](Nc1ncnc2[nH]ccc(=O)c12)c1cc2cccc(-c3ccc(N(C)C)cc3)c2c(=O)n1-c1ccccc1 [Example 20, (S)-4-((1-(8-(4-(dimethylamino)phenyl)-1-oxo-2-phenyl-1,2-dihydroisoquinolin-3-yl)ethyl)amino)pyrido[2,3-d]pyrimidin-5(8H)-one] |
| – | – | 73% | 101% | 32% | 91% | C[C@H](Nc1ncnc2[nH]ccc(=O)c12)c1c(Cl)c2cccc(-c3ccc4c(ccn4C)c3)c2c(=O)n1-c1ccccc1 [Example 116, (S)-4-((1-(4-chloro-8-(1-methyl-1H-indol-5-yl)-1-oxo-2-phenyl-1,2-dihydroisoquinolin-3-yl)ethyl)amino)pyrido[2,3-d]pyrimidin-5(8H)-one] |
| – | – | 74% | 95% | 25% | 74% | C[C@H](Nc1ncnc2[nH]ccc(=O)c12)c1c(Cl)c2cccc(-c3cc4ccccc4o3)c2c(=O)n1-c1ccccc1 [Example 6, (S)-4-((1-(8-(benzofuran-2-yl)-4-chloro-1-oxo-2-phenyl-1,2-dihydroisoquinolin-3-yl)ethyl)amino)pyrido[2,3-d]pyrimidin-5(8H)-one] |
| – | – | 76% | – | 41% | – | CCOc1cnc(-c2cccc3c(Cl)c([C@H](C)Nc4ncnc5[nH]ccc(=O)c45)n(-c4ccccc4)c(=O)c23)cn1 [Example 230, (S)-4-((1-(4-chloro-8-(5-ethoxypyrazin-2-yl)-1-oxo-2-phenyl-1,2-dihydroisoquinolin-3-yl)ethyl)amino)pyrido[2,3-d]pyrimidin-5(8H)-one] |
| – | – | 76% | – | 34% | – | C[C@H](Nc1ncnc2[nH]ccc(=O)c12)c1c(Cl)c2cccc(-c3cc4[nH]ncc4cn3)c2c(=O)n1-c1ccccc1 [Example 27, (S)-4-((1-(4-chloro-1-oxo-2-phenyl-8-(1H-pyrazolo[4,3-c]pyridin-6-yl)-1,2-dihydroisoquinolin-3-yl)ethyl)amino)pyrido[2,3-d]pyrimidin-5(8H)-one] |
| – | – | 45% | 86% | 64% | 96% | C[C@H](Nc1ncnc2[nH]ccc(=O)c12)c1c(Cl)c2cccc(-c3nc4ccccc4o3)c2c(=O)n1-c1ccccc1 [Example 317, (S)-4-((1-(8-(benzo[d]oxazol-2-yl)-4-chloro-1-oxo-2-phenyl-1,2-dihydroisoquinolin-3-yl)ethyl)amino)pyrido[2,3-d]pyrimidin-5(8H)-one] |
| 38% | 7% | – | – | – | – | C[C@H](Nc1ncnc2[nH]ccc(=O)c12)c1c(Cl)c2cccc(S)c2c(=O)n1-c1ccccc1 [Example 427, (S)-4-((1-(4-chloro-8-mercapto-1-oxo-2-phenyl-1,2-dihydroisoquinolin-3-yl)ethyl)amino)pyrido[2,3-d]pyrimidin-5(8H)-one] |
| – | – | 79% | – | 14% | – | CC(C)NC(=O)c1cccc2c(Cl)c([C@H](C)Nc3ncnc4[nH]ccc(=O)c34)n(-c3ccccc3)c(=O)c12 [Example 282, (S)-4-chloro-N-isopropyl-1-oxo-3-(1-((5-oxo-5,8-dihydropyrido[2,3-d]pyrimidin-4-yl)amino)ethyl)-2-phenyl-1,2-dihydroisoquinoline-8-carboxamide] |
| – | – | 18.2% | 39.5% | 47.1% | 82.2% | C[C@H](Nc1ncnc2[nH]ccc(=O)c12)c1c(Cl)c2cccc(C#Cc3ccnn3C)c2c(=O)n1-c1ccccc1 [Example 311, (S)-4-((1-(4-chloro-8-((1-methyl-1H-pyrazol-5-yl)ethynyl)-1-oxo-2-phenyl-1,2-dihydroisoquinolin-3-yl)ethyl)amino)pyrido[2,3-d]pyrimidin-5(8H)-one] |
| 92% | 16% | – | – | – | – | C[C@H](Nc1ncnc2[nH]ccc(=O)c12)c1c(Cl)c2cccc(C(=O)Nc3ccccc3)c2c(=O)n1-c1ccccc1 [Example 440, (S)-4-chloro-1-oxo-3-(1-((5-oxo-5,8-dihydropyrido[2,3-d]pyrimidin-4-yl)amino)ethyl)-N, 2-diphenyl-1,2-dihydroisoquinoline-8-carboxamide] |
| – | – | 3% | 14% | 9% | 16% | C[C@H](Nc1ncnc2[nH]ccc(=O)c12)c1c(Cl)c2cccc(-c3ccc(S)cc3)c2c(=O)n1-c1ccccc1 [Example 95, (S)-4-((1-(4-chloro-8-(4-mercaptophenyl)-1-oxo-2-phenyl-1,2-dihydroisoquinolin-3-yl)ethyl)amino)pyrido[2,3-d]pyrimidin-5(8H)-one] |
| – | – | 31% | 95% | 13% | 52% | C[C@H](Nc1ncnc2[nH]ccc(=O)c12)c1c(Cl)c2cccc(NCCc3ccc(Cl)cc3)c2c(=O)n1-c1ccccc1 [Example 335, (S)-4-((1-(4-chloro-8-((4-chlorophenethyl)amino)-1-oxo-2-phenyl-1,2-dihydroisoquinolin-3-yl)ethyl)amino)pyrido[2,3-d]pyrimidin-5(8H)-one] |
| 7% | 9% | – | – | – | – | CC[S@](=N)(=O)c1cccc2c(Cl)c([C@H](C)Nc3ncnc4[nH]ccc(=O)c34)n(-c3ccccc3)c(=O)c12 [Example 436, 4-(((S)-1-(4-chloro-8-((S)-ethylsulfonimidoyl)-1-oxo-2-phenyl-1,2-dihydroisoquinolin-3-yl)ethyl)amino)pyrido[2,3-d]pyrimidin-5(8H)-one] |
| – | – | 42% | 94% | 56% | 89% | C[C@H](Nc1ncnc2[nH]ccc(=O)c12)c1c(Cl)c2cccc(B3OC(C)(C)C(C)(C)O3)c2c(=O)n1-c1ccccc1 [Example 2, (S)-4-((1-(4-chloro-1-oxo-2-phenyl-8-(4,4,5,5-tetramethyl-1,3,2-dioxaborolan-2-yl)-1,2-dihydroisoquinolin-3-yl)ethyl)amino)pyrido[2,3-d]pyrimidin-5(8H)-one] |
